Results on two substances are retold here after patent US5547856A, “Hepatocyte growth factor variants” (Genentech, Inc., priority 1993, dated 1996).

pKd: −log10 of the molar value.

Assay [1] has as its system cell surface receptor on hepatocytes. Conditions: Higuchi and Nakamura 1991; cited from earlier work.
The target in assay [2] is extracellular domain of the human HGF receptor (huHGFr) fused to the Fc constant region of an human IgG. The assay can be described thus: Soluble HGF receptor competitive binding assay (displacement of 125I-rhuHGF). The note with it: for pKd: binding to HGF receptor:IgG fusion protein, calculated at the IC50 from fitted inhibition curves. As to the method:
The coding sequence of the extracellular domain of the huHGFr was fused to those of the human IgGl heavy chain in a two-step process. […] The 5' primer (located in the vector upstream of the HeFr coding sequences) and the 3' primer (5'-[…]-3') (SEQ. ID. NO: 21) were used in a 100 μl reaction as described above except that the extension time at 72° C. was 3 minutes, and 40 ng of the full length HGFr expression vector was used as template. […] Sequencing of the construct was carried out as described above.
The binding assay was performed in breakable microtiter plates (Nunc) coated o/n at 4° C. with […] of rabbit-anti-human IgG Fc specific antibody (Jackson Immunoresearch) and plates were carefully washed with PBS containing 0.05% Tween 20 (Biorad). […] To each well […] of serial dilutions (1:25-1:6000) of cell supernatants, purified CHO-expressed rhuHGF ([…]) or medium were added in duplicates. Subsequently, […] of 50 pM of HGF receptor:IgG fusion protein were added and the plates were incubated with gentle shaking. After 4 hours, when equilibrium was reached, plates were washed and wells were individually counted in a gamma-counter. The amount of nonspecifically bound radioactivity was estimated by incubating HGF receptor:IgG with a 500-fold excess of unlabelled rhuHGF.

The test system of assay [3] is rat hepatocytes in primary culture. Put plainly: Mitogenic assay: induction of DNA synthesis (3H-TdR incorporation) of rat hepatocytes in primary culture. In kind it is cell-based. The note with it: * = did not reach the same absolute level as wild-type huHGF. As to the method:
The biological activity of WT huHGF and variants was measured by their abilities to induce DNA synthesis of rat hepatocytes in primary culture. […] Briefly, the livers of female Sprague Dawley rats (160-180 g) were perfused through the portal vein with 100 mL of Ca^++ free Hepes buffered saline containing 0.02% Collagenase type IV (Sigma). After 20 minutes the liver was removed, placed in buffer, gently stirred to separate hepatocytes from connective tissue and blood vessels, and filtered through nylon mesh. Cells were then washed by centrifugation, resuspended at 1×10^5 cells/mL in Williams Media E (Gibco) containing Penicillin (100 U/ml), Streptomycin ([…]), L-Glutamine (2 mM), trace elements (0.01%), transfertin ([…]) and Aprotinin ([…]). […] After 48 hours incubation at 37° C., 0.5 mCi 3H-TdR (15 Ci/mmole, Amersham) was added to each well and incubated for an additional 16 hours. Cells were harvested on filter papers, which were washed, dried and counted in a Beckman counter after addition of scintillation liquid. For each huHGF variant, the specific activity (SA) expressed in units/mg was calculated at half-maximal proliferation (defined as 1 unit/mL) using the HGF concentration obtained in ELISA.

For assay [4], the system named is 145 kDa β-subunit of the HGF receptor in A549 cells. Put plainly: Induction of tyrosine phosphorylation of the HGF receptor on A549 cells (Western blot). In kind it is cell-based, human. Conditions: serum-starved A549 cells, 200 ng/mL purified protein, 5 minutes. The protocol: FIG. 4: Western blot of ligand-induced tyrosine-phosphorylation on the 145 kDa β-subunit of the HGF receptor by wild-type rhuHGF, single-chain or protease domain huHGF variants. […] Molecular masses (kilodaltons) are as indicated.
Serum-starved cells were incubated without or with 200 ng/mL rhuHGF for 5 minutes at 37° C. and extracted with lysis buffer containing 50 mM Hepes, 150 mM NaCl, 1.5 mM MgCl2, 1 mM EGTA, 10% Glycerol, 1% Triton X-100 and a cocktail of protease inhibitors. The lysates were immunoprecipitated with anti-Met COOH antibodies and blotted with anti-phosphotyrosine antibodies (see Western blotting above).
(In general: A western blot detects proteins with antibodies after separation by electrophoresis.)

“huHGF: human hepatocyte growth factor as studied in the literature for binding to hepatocytes”: in assay [1], the pKd (as a rule, −log10 of the Kd, conventionally taken in molar units) is 10.49 to 10.62.

Regarding “wt rhuHGF: wild-type recombinant human hepatocyte growth factor, 728 amino acid form (Miyazawa et al. 1989) [reference compound]”, in assay [2] (Table 2, Kd ratio wild type/mutant), the Kdwt/mut came out at 1. For the same substance, the pKd in assay [2] was 10.15; in assay [2] (listed as WT rhuHGF), 10.15 to 10.30. Also, the “SA mut/wt +/- SD” value in assay [3] (Table 2, specific mitogenic activity relative to wt rhuHGF) turned out to be 1. Moreover, in assay [3] (Table 3, alterations near or within the hairpin domain), the “SA +/- mut/wt” value was 1. Also, in assay [4], the “tyrosine phosphorylation of the HGF receptor (in words)” value is on record as “led to the phosphorylation on tyrosine of the 145 kDa β-subunit of the HGF receptor”.
